Data from patent US11987646B2, “Immunomodulatory peptides” (Leidos, Inc., priority 2020, dated 2024).

Key:
PD1 = molecular target: T1, PD1 (Homo sapiens, UniProt Q15116); assay: PATHHUNTER checkpoint signaling assay (PD1 activation / SHP1 recruitment); type: cell-based; conditions: Jurkat cells expressing PD1 and SHP1 co-incubated with PDL1-presenting U2OS cells, 2 h RT; peptides at 20 μM and 100 μM, in duplicate; FIG. 1
T1 construct: host or cells: Jurkat cells (PD1 and SHP1 EFC fusions), co-cultured with PDL1-presenting U2OS cells
T1 sequence (Q15116 25-288): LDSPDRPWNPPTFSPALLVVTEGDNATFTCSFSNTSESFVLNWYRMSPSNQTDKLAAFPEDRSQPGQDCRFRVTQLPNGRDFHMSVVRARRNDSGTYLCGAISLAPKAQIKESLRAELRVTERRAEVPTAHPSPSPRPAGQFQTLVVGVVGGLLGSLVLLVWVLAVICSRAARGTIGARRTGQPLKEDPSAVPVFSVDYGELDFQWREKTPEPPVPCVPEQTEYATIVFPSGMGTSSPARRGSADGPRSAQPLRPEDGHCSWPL
Method: Peptides were tested for their ability to inhibit the binding of PDL1 to PD1 using PATHHUNTER® checkpoint signaling assays (DiscoverX).
Jurkat cells expressing PD1 and SHP1 proteins, each fused to a fragment of enzyme fragment complementation (EFC) system, were co-incubated with PDL1-presenting U2OS cells. […] Inhibitory peptides or antibodies added to the culture would reduce the light signal.
Cells in co-culture were incubated at room temperature (RT) for 2 h (PD1 assay). The assay signal was generated using the PATHHUNTER® Bioassay Detection kit. FoLD01 (SEQ ID NO:1), LD10 (SEQ ID NO:5), and LD12 (SEQ ID NO:6) peptides were tested in duplicate at two concentrations, 20 μM and 100 μM. Peptides were dissolved in water or DMSO and diluted in assay buffer.
Microplates were read following signal generation using a PerkinElmer ENVISION™ instrument for chemiluminescent signal detection. The percentage of inhibition efficacy was calculated using the following formula, in which “RLU” means relative light units: […]

[1] = system: MC38 (colon carcinoma) cells; assay: MC38 tumor model; type: in vivo, mice; conditions: intra-tumorally 2× a week, 50 μg dose, normalized to day 0, Mann-Whitney test, P value 0.0499
Method: Mice were injected subcutaneously with 1×10^6 MC38 (colon carcinoma) cells and tumor volumes were measured on day 2, 5, 9, 12, and 16 (end of study) and normalized to day 0 values for each animal. When the mean tumor size reached approximately 80-120 mm^3, mice were randomized and treatment was started. Peptides were tested in an MC38 tumor model. FoLD01 peptide was administered intra-tumorally 2× a week (50 μg dose). Monoclonal antibodies were administered intraperitoneally 2× a week (5 mg/kg (anti-CTLA4) and 10 mg/kg (anti-PD1) dose). Statistical test used: Unpaired, non-parametric, two-tailed Mann-Whitney test. Control used: intra-tumor injection of DMSO diluted in PBS (for FoLD01 injected intra-tumorally).

[2] = system: IFNγ-secreting antigen-specific CD8+ T cells; assay: AdPyCS mouse model, IFNγ ELISPOT of spleen cells; type: in vivo; conditions: mice immunized i.m. with AdPyCSP, peptide subcutaneously 1 μg, 10 μg; spleens ten days post-injection; relative to AdPyCS-only; one-way ANOVA; FIG. 2
Method: Groups of five mice were immunized intramuscularly with a recombinant replication defective adenovirus expressing the Plasmodium yoelli circumsporozoite protein (AdPyCSP) and then treated subcutaneously with peptides LD10da ([…], in which the first amino acid is a D-amino acid, 1 μg), FoLD01 (1 μg, 10 μg), or an anti-PD1 monoclonal antibody (10 μg). Ten days post-injection, mice were euthanized and individual spleens removed. The number of IFNγ-secreting antigen-specific CD8+ T cells were determined using an ELISPOT assay (FIG. 2).

[3] = system: Pan02 (pancreatic adenocarcinoma) cells; assay: Pan02 tumor model; type: in vivo, mice; conditions: intra-tumorally 2× a week, 50 μg dose, normalized to day 0, Mann-Whitney test
Method: Mice were injected subcutaneously with 3×10^6 Pan02 (pancreatic adenocarcinoma) cells in the right rear flank. Tumor volumes were measured at least twice weekly in two dimensions using a caliper. When the mean tumor size reached approximately 80-120 mm^3, mice were randomized and treatment was started. FoLD04 was administered intra-tumorally 2× a week (50 μg dose). Monoclonal antibodies were administered intraperitoneally 2× a week (5 mg/kg (anti-CTLA4) and 10 mg/kg (anti-PD1) dose).
Tumor volumes were measured on day 4, 7, 11, 14, 18, 21, 25 and 27 (end of study) and normalized to day 0 values for each animal. Statistical test used: Unpaired, non-parametric, two-tailed Mann-Whitney test.
Control used: intra-tumor injection of DMSO diluted in PBS (for FoLD04 injected intra-tumorally).

Substance	inhibition of PD1-PDL1 interaction (percentage of inhibition efficacy) (PD1)	tumor volume relative to intra-tumoral DMSO/PBS control [1]	number of IFNγ-secreting antigen-specific CD8+ T cells [2]	tumor volume relative to DMSO/PBS IT control [3]
FoLD01: peptide, amino acid sequence STNQVSALRVNILFPLSQ (SEQ ID NO:1) (FoLD01 peptide)	inhibited PD1-PDL1 interaction to a greater extent than peptides LD10 and LD12	significantly decreased tumor volume	enhances the number of antigen-specific CD8+ T cells relative to stimulation with antigen only	–
FoLD04: peptide, amino acid sequence QVSALRVNILF (SEQ ID NO:4) (listed as Fusarium oxysporum)	–	–	–	significantly decreased tumor volume
